# Assay results reported in ChEMBL document CHEMBL1147943, “Antiproliferative activity of 4-chloro-5,6-dihydro-2H-pyrans. Part 2: Enhancement of drug cytotoxicity” (2007).
# Experiments:
# Format in all cases: functional
# Conditions in all cases: for CC50: read-out: LC50 (the source's name)
# A2780 = assay: Antiproliferative activity against human A2780 cells
# SW1573 = assay: Antiproliferative activity against human SW1573 cells
# WiDr = assay: Antiproliferative activity against human WiDr cells
Compound,GI50 (A2780),GI50 (SW1573),GI50 (WiDr),TGI (A2780),TGI (WiDr),CC50 (A2780),TGI (SW1573),CC50 (SW1573),CC50 (WiDr)
C#CCCC1C=C(Cl)CCO1 (centres undefined),37 µM,41 µM,> 100 µM,–,–,–,–,–,–
C[Si](C)(C)C1=C(Cl)C[C@H](Cc2ccccc2)O[C@@H]1C1CCCCC1,34 µM,30 µM,62 µM,78 µM,88 µM,–,–,–,–
C[Si](C)(C)C1=C(Cl)C[C@H](Cc2ccccc2)O[C@@H]1CCCCCCCCCC1C=C(Cl)CCO1 (some centres undefined),23 µM,30 µM,67 µM,47 µM,–,96 µM,68 µM,–,–
C[C@@H]1O[C@H](C2CCCCC2)C([Si](C)(C)C)=C(Cl)[C@H]1C,19 µM,20 µM,42 µM,38 µM,84 µM,77 µM,41 µM,76 µM,–
C#CCC[C@H]1O[C@@H](C)[C@H](C)C(Cl)=C1[Si](C)(C)C,21 µM,19 µM,24 µM,39 µM,68 µM,75 µM,37 µM,75 µM,85 µM
ClC1=CC(C2CCCCC2)OCC1 (centres undefined),20 µM,26 µM,100 µM,–,–,–,–,–,–
ClC1=CC(CCCCCCCCCCC2C=C(Cl)CCO2)OCC1 (centres undefined),8.6 µM,14 µM,20 µM,25 µM,61 µM,65 µM,36 µM,85 µM,89 µM
C[Si](C)(C)C1=C(Cl)C[C@H](C2CCCCC2)O[C@@H]1C1CCCCC1,22 µM,23 µM,30 µM,46 µM,81 µM,90 µM,48 µM,88 µM,97 µM
ClC1=CC(CCC=C(Br)Br)OCC1 (centres undefined),16 µM,30 µM,23 µM,53 µM,57 µM,76 µM,92 µM,–,96 µM
CC(C)CC1OCCC(Cl)=C1[Si](C)(C)C (centres undefined),27 µM,10 µM,20 µM,66 µM,39 µM,92 µM,28 µM,65 µM,79 µM
CC[C@@H](C)[C@H]1O[C@@H](C)CC(Cl)=C1[Si](C)(C)C,> 100 µM,> 100 µM,> 100 µM,–,–,–,–,–,–
C[C@H]1CC(Cl)=C[C@@H](C2CCCCC2)O1,19 µM,12 µM,65 µM,38 µM,–,79 µM,43 µM,–,–
CC[C@H]1CC(Cl)=C([Si](C)(C)C)[C@@H](C2CCCCC2)O1,16 µM,22 µM,29 µM,35 µM,73 µM,75 µM,49 µM,91 µM,95 µM
C[C@H]1CC(Cl)=C([Si](C)(C)C)[C@@H](C2CCCCC2)O1,17 µM,16 µM,15 µM,32 µM,33 µM,61 µM,31 µM,62 µM,74 µM
CC(C)CC1C=C(Cl)CCO1 (centres undefined),> 100 µM,> 100 µM,> 100 µM,–,–,–,–,–,–
C[C@@H]1O[C@H](CCC=C(Br)Br)C([Si](C)(C)C)=C(Cl)[C@H]1C,16 µM,22 µM,25 µM,33 µM,90 µM,70 µM,43 µM,87 µM,–
C=CCC[C@H]1O[C@@H](C)[C@H](C)C(Cl)=C1[Si](C)(C)C,17 µM,23 µM,37 µM,36 µM,–,19 µM,55 µM,92 µM,–
